Peptide text beside a SMILES is read from it.

The source of these data is article PMC7070694, “Identification of New Peptides from Fermented Milk Showing Antioxidant Properties: Mechanism of Action” (Antioxidants, 2020).

The data set can be described thus: MTT cell viability (cytotoxicity). It is filed as cell-based. The conditions noted are these: human, Caco-2 cells (1 × 10^4), synthetic peptides 0.05 mg/mL, no TbOOH, mean ± SD of at least three experiments, read-out: Percentage of Cell Viability, None (c).
Regarding `CC(C)C[C@H](NC(=O)[C@@H](NC(=O)[C@H](CCCCN)NC(=O)[C@H](CO)NC(=O)[C@H](CCC(N)=O)NC(=O)[C@@H](N)CO)C(C)C)C(=O)N1CCC[C@H]1C(=O)N[C@H](C(=O)N1CCC[C@H]1C(=O)N[C@@H](CCC(N)=O)C(=O)N[C@@H](CCCCN)C(=O)N[C@@H](C)C(=O)N[C@H](C(=O)N1CCC[C@H]1C(=O)N[C@@H](Cc1ccc(O)cc1)C(=O)N1CCC[C@H]1C(=O)N[C@@H](CCC(N)=O)C(=O)O)C(C)C)C(C)C` [S-17-Q] (H-SQSKVLPVPQKAVPYPQ-OH), the viability (as a rule, a read-out of living cells in per cent, often relative to untreated cells) at 24 h, 50 µg/mL was determined as 101 ± 7.46%.
For the compound `CC[C@H](C)[C@H](N)C(=O)N[C@@H](CCC(N)=O)C(=O)N1CCC[C@H]1C(=O)N[C@@H](CCCCN)C(=O)N[C@H](C(=O)N[C@@H](CCCCN)C(=O)N[C@H](C(=O)N[C@H](C(=O)N1CCC[C@H]1C(=O)N[C@@H](Cc1ccc(O)cc1)C(=O)N[C@H](C(=O)N[C@@H](CCCNC(=N)N)C(=O)N[C@@H](Cc1ccc(O)cc1)C(=O)N[C@@H](CC(C)C)C(=O)O)C(C)C)[C@@H](C)CC)C(C)C)[C@@H](C)O` [I-14-L] (H-IQPKTKVIPYVRYL-OH), the viability at 24 h, 50 µg/mL was determined as 93 ± 13.6%.
With `CC[C@H](C)[C@H](NC(=O)[C@@H](NC(=O)[C@H](CC(N)=O)NC(=O)[C@@H](NC(=O)[C@@H](NC(=O)[C@@H]1CCCN1C(=O)[C@@H](NC(=O)[C@H](CCC(=O)O)NC(=O)[C@@H](NC(=O)[C@H](CCCCN)NC(=O)[C@@H](N)CC(=O)O)[C@@H](C)O)[C@@H](C)CC)[C@@H](C)O)[C@@H](C)CC)[C@@H](C)O)C(=O)N[C@@H](C)C(=O)N[C@@H](CO)C(=O)NCC(=O)N[C@@H](CCC(=O)O)C(=O)N1CCC[C@H]1C(=O)N[C@H](C(=O)O)[C@@H](C)O` [D-17-T] (H-DKTEIPTINTIASGEPT-OH), the viability at 24 h, 50 µg/mL worked out at 104 ± 5.62%.
Turning to `CC[C@H](C)[C@H](NC(=O)[C@@H]1CCCN1C(=O)[C@@H](NC(=O)[C@H](Cc1ccc(O)cc1)NC(=O)[C@@H](N)CCCCN)[C@@H](C)CC)C(=O)N[C@@H](CCC(N)=O)C(=O)N[C@@H](Cc1ccc(O)cc1)C(=O)N[C@H](C(=O)N[C@@H](CC(C)C)C(=O)N[C@@H](CO)C(=O)O)C(C)C` [K-10-S] (H-KYIPIQYVLS-OH), the viability at 24 h, 50 µg/mL was determined as 97.3 ± 6.69%.
With `CC[C@H](C)[C@H](NC(=O)[C@H](CCCCN)NC(=O)[C@H](CCCCN)NC(=O)[C@H](CC(C)C)NC(=O)[C@@H](N)Cc1ccccc1)C(=O)N[C@@H](CO)C(=O)N[C@@H](CCC(N)=O)C(=O)N[C@@H](CCCNC(=N)N)C(=O)N[C@@H](Cc1ccc(O)cc1)C(=O)N[C@@H](CCC(N)=O)C(=O)N[C@@H](CCCCN)C(=O)N[C@@H](Cc1ccccc1)C(=O)O` [F-12-F] (H-FLKKISQRYQKF-OH), the viability at 24 h, 50 µg/mL was determined as 97.7 ± 19.2%.
On to `CC(C)C[C@H](NC(=O)[C@H](Cc1ccc(O)cc1)NC(=O)[C@H](CCC(N)=O)NC(=O)[C@@H]1CCCN1C(=O)[C@H](CC(C)C)NC(=O)[C@H](C)N)C(=O)N[C@@H](CCCCN)C(=O)N[C@H](C(=O)N[C@H](C(=O)N[C@@H](Cc1ccc(O)cc1)C(=O)N[C@@H](CCC(N)=O)C(=O)N[C@@H](Cc1c[nH]cn1)C(=O)N[C@@H](CCC(N)=O)C(=O)N[C@@H](CCCCN)C(=O)O)C(C)C)[C@@H](C)O` [A-14-K] (H-ALPQYLKTVYQHQK-OH), for which the viability at 24 h, 50 µg/mL is 84.4 ± 9.69%.
Turning to `CC[C@H](C)[C@H](NC(=O)[C@@H]1CCCN1C(=O)CNC(=O)[C@@H]1CCCN1C(=O)[C@H](Cc1ccccc1)NC(=O)[C@@H]1CCCN1C(=O)[C@H](Cc1ccc(O)cc1)NC(=O)[C@@H](N)C(C)C)C(=O)N1CCC[C@H]1C(=O)N[C@@H](CC(N)=O)C(=O)O` [V-10-N] (H-VYPFPGPIPN-OH), the viability at 24 h, 50 µg/mL worked out at 111 ± 9.93%.
Consider `CC[C@H](C)[C@H](NC(=O)[C@H](CCC(=O)O)NC(=O)CNC(=O)[C@@H]1CCCN1C(=O)[C@@H](NC(=O)[C@@H](N)CC(N)=O)C(C)C)C(=O)N[C@H](C(=O)N[C@@H](CCC(=O)O)C(=O)N[C@@H](CO)C(=O)N[C@@H](CC(C)C)C(=O)O)C(C)C` [N-10-L] (H-NVPGEIVESL-OH), for which the viability at 24 h, 50 µg/mL is 120 ± 15.7%.
`CSCC[C@H](NC(=O)[C@H](CCC(=O)O)NC(=O)[C@H](CCCCN)NC(=O)[C@@H](N)Cc1c[nH]cn1)C(=O)N1CCC[C@H]1C(=O)N[C@@H](Cc1ccccc1)C(=O)N1CCC[C@H]1C(=O)N[C@@H](CCCCN)C(=O)N[C@@H](Cc1ccc(O)cc1)C(=O)N1CCC[C@H]1C(=O)N[C@H](C(=O)N[C@@H](CCC(=O)O)C(=O)N1CCC[C@H]1C(=O)N[C@@H](Cc1ccccc1)C(=O)N[C@H](C(=O)N[C@@H](CCC(=O)O)C(=O)N[C@@H](CO)C(=O)N[C@@H](CCC(N)=O)C(=O)O)[C@@H](C)O)C(C)C` [H-18-Q] (H-HKEMPFPKYPVEPFTESQ-OH): the viability at 24 h, 50 µg/mL is 91.9 ± 8.99%.
Regarding `CC[C@H](C)[C@H](NC(=O)[C@H](CCCCN)NC(=O)[C@@H](NC(=O)[C@@H](NC(=O)[C@@H]1CCCN1C(=O)[C@@H](NC(=O)CNC(=O)[C@@H](NC(=O)[C@H](CC(=O)O)NC(=O)[C@H](CC(=O)O)NC(=O)[C@H](CCCCN)NC(=O)[C@@H](N)CCC(=O)O)[C@@H](C)O)[C@@H](C)O)[C@@H](C)CC)[C@@H](C)O)C(=O)N[C@@H](CCC(=O)O)C(=O)N[C@@H](CC(C)C)C(=O)N[C@H](C(=O)N1CCC[C@H]1C(=O)N[C@@H](CO)C(=O)N[C@@H](Cc1c[nH]cn1)C(=O)O)C(C)C` [E-18-H] (H-EKDDTGTPITKIELVPSH-OH), the viability at 24 h, 50 µg/mL worked out at 104 ± 5.01%.
`CSCC[C@H](NC(=O)[C@H](Cc1c[nH]c2ccccc12)NC(=O)[C@@H](N)CO)C(=O)N[C@@H](Cc1c[nH]cn1)C(=O)N[C@@H](CCC(N)=O)C(=O)N1CCC[C@H]1C(=O)N[C@@H](Cc1c[nH]cn1)C(=O)N[C@@H](CCC(N)=O)C(=O)N1CCC[C@H]1C(=O)N[C@@H](CC(C)C)C(=O)N1CCC[C@H]1C(=O)N1CCC[C@H]1C(=O)N[C@H](C(=O)O)[C@@H](C)O` [S-13-T] (H-SWMHQPHQPLPPT-OH): the viability at 24 h, 50 µg/mL is 107 ± 12.4%.
On to `CC[C@H](C)[C@H](N)C(=O)N[C@@H](CC(N)=O)C(=O)N[C@@H](CC(N)=O)C(=O)N[C@@H](CCC(N)=O)C(=O)N[C@@H](Cc1ccccc1)C(=O)N[C@@H](CC(C)C)C(=O)N1CCC[C@H]1C(=O)N[C@@H](Cc1ccc(O)cc1)C(=O)N1CCC[C@H]1C(=O)N[C@@H](Cc1ccc(O)cc1)C(=O)N[C@@H](Cc1ccc(O)cc1)C(=O)N[C@@H](C)C(=O)N[C@@H](CCCCN)C(=O)N1CCC[C@H]1C(=O)N[C@@H](C)C(=O)O` [I-15-A] (H-INNQFLPYPYYAKPA-OH), for which the viability at 24 h, 50 µg/mL is 104 ± 5.12%.
As to `CC(C)C[C@H](NC(=O)[C@H](Cc1ccccc1)NC(=O)[C@@H]1CCCN1C(=O)[C@@H]1CCCN1C(=O)[C@@H](NC(=O)[C@@H](N)C(C)C)C(C)C)C(=O)N[C@@H](CCC(N)=O)C(=O)N1CCC[C@H]1C(=O)N[C@@H](CCC(=O)O)C(=O)O` [V-9-E] (H-VVPPFLQPE-OH), the viability at 24 h, 50 µg/mL was determined as 107 ± 8.02%.
Next, `CC(C)[C@H](NC(=O)[C@@H]1CCCN1C(=O)[C@H](Cc1ccc(O)cc1)NC(=O)[C@H](CCCCN)NC(=O)[C@@H]1CCCN1C(=O)[C@@H](N)Cc1ccccc1)C(=O)N[C@@H](CCC(=O)O)C(=O)N1CCC[C@H]1C(=O)N[C@@H](Cc1ccccc1)C(=O)O` [F-9-F] (H-FPKYPVEPF-OH): 109 ± 12.7%; `CC(C)C[C@H](NC(=O)[C@H](CC(C)C)NC(=O)[C@H](CC(N)=O)NC(=O)[C@H](CCC(=O)O)NC(=O)[C@H](CC(N)=O)NC(=O)[C@H](CC(C)C)NC(=O)[C@@H](NC(=O)[C@H](CCC(=O)O)NC(=O)[C@H](CCC(N)=O)NC(=O)[C@@H]1CCCN1C(=O)[C@H](CC(C)C)NC(=O)CNC(=O)[C@H](CCC(N)=O)NC(=O)[C@H](Cc1c[nH]cn1)NC(=O)[C@@H](N)CCCCN)C(C)C)C(=O)O` [K-15-L] (H-KHQGLPQEVLNENLL-OH): 105 ± 14.5%; `CC(C)[C@H](NC(=O)[C@H](CCC(=O)O)NC(=O)[C@@H]1CCCN1C(=O)[C@H](Cc1ccccc1)NC(=O)[C@@H]1CCCN1)C(=O)N[C@@H](Cc1ccccc1)C(=O)NCC(=O)N[C@@H](CCCCN)C(=O)N[C@@H](CCC(=O)O)C(=O)O` [P-9-E] (H-PFPEVFGKE-OH): 101 ± 14.5%.
Next, `CC[C@H](C)[C@H](NC(=O)[C@H](CCC(=O)O)NC(=O)[C@@H]1CCCN1C(=O)[C@@H]1CCCN1C(=O)[C@H](CO)NC(=O)[C@H](CCC(=O)O)NC(=O)[C@@H](NC(=O)[C@@H](N)C(C)C)[C@@H](C)CC)C(=O)N[C@@H](CC(N)=O)C(=O)N[C@H](C(=O)N[C@H](C(=O)N[C@@H](CCC(N)=O)C(=O)O)C(C)C)[C@@H](C)O` [V-12-Q] (H-VIESPPEINTVQ-OH): 113 ± 3.52%; `CC[C@H](C)[C@H](NC(=O)CNC(=O)[C@H](Cc1ccc(O)cc1)NC(=O)[C@H](CO)NC(=O)[C@@H]1CCCN1C(=O)[C@H](Cc1ccc(O)cc1)NC(=O)[C@H](CCCNC(=N)N)NC(=O)[C@H](CO)NC(=O)[C@H](CC(C)C)NC(=O)[C@@H](NC(=O)[C@H](Cc1ccc(O)cc1)NC(=O)[C@@H](N)CCC(N)=O)C(C)C)C(=O)N[C@@H](CC(N)=O)C(=O)O` [Q-13-N] (H-QYVLSRYPSYGIN-OH): 104 ± 6.64%.
As for `CC[C@H](C)[C@H](NC(=O)[C@H](CCC(N)=O)NC(=O)[C@H](C)NC(=O)[C@@H]1CCCN1C(=O)[C@H](CO)NC(=O)[C@H](CCCNC(=N)N)NC(=O)[C@@H](NC(=O)[C@H](C)N)C(C)C)C(=O)N[C@@H](CC(C)C)C(=O)N[C@@H](CCC(N)=O)C(=O)N[C@@H](Cc1c[nH]c2ccccc12)C(=O)N[C@@H](CCC(N)=O)C(=O)O` [A-12-Q] (H-AVRSPAQILQWQ-OH), the viability at 24 h, 50 µg/mL worked out at 102 ± 4.69%.
